Results as given in the supplement of paper PMC10627819.

Tests used:
Assay in all cases: fitness (endpoint OD595 vs no drug) (fraction); higher = more growth
B. subtilis 168 = system: B. subtilis 168
In short: (§1)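 Each well of a 384-well plate received 30 µl of culture at OD595 0.01, or 55 µl for S. pneumoniae. TSB, LB Lennox or CY served as media at 37 °C. OD595 was taken every 30 min for 14 h and corrected by subtracting the first reading. Fitness is the optical density at stationary-phase entry divided by the robust mean of no-drug controls, capped at 1.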

S. aureus DSM 20231 = system: S. aureus DSM 20231
In short: as §1

S. pneumoniae D39V = system: S. pneumoniae D39V
In short: as §1

CN(C)[C@@H]1C(O)=C(C(N)=O)C(=O)[C@@]2(O)C(O)=C3C(=O)c4c(O)ccc(Cl)c4[C@@](C)(O)[C@H]3C[C@@H]12 [Chlortetracycline] + CN[C@@H]1[C@H](O)[C@H](NC)[C@H]2O[C@@]3(O)C(=O)C[C@@H](C)O[C@H]3O[C@@H]2[C@H]1O [Spectinomycin]
fitness
Details | partner 2 µg/mL | partner 4 µg/mL | partner 8 µg/mL | partner 16 µg/mL
B. subtilis 168, first compound 0.0475 µg/mL | 0.885 | 0.884 | 0.752 | –
B. subtilis 168, first compound 0.095 µg/mL | 0.803 | 0.806 | 0.691 | –
B. subtilis 168, first compound 0.19 µg/mL | 0.523 | 0.409 | 0.199 | –
S. aureus DSM 20231, first compound 0.012 µg/mL | – | 0.529 | – | 0.494
S. aureus DSM 20231, first compound 0.024 µg/mL | – | 0.203 | – | –
S. aureus DSM 20231, first compound 0.048 µg/mL | – | 0.137 | 0.0943 | 0.05
S. pneumoniae D39V, first compound 0.375 µg/mL | – | 0.0802 | 0.0586 | 0.0693
S. pneumoniae D39V, first compound 0.75 µg/mL | – | 0.0886 | 0.0941 | 0.0722
S. pneumoniae D39V, first compound 1.5 µg/mL | – | 0.0871 | 0.0754 | 0.0779

fitness, one replicate
Details | first compound 0.006 µg/mL | first compound 0.012 µg/mL | first compound 0.024 µg/mL | first compound 0.048 µg/mL
S. aureus DSM 20231, partner 4 µg/mL | 0.669 | – | – | –
S. aureus DSM 20231, partner 8 µg/mL | 0.707 | – | – | –
S. aureus DSM 20231, partner 16 µg/mL | 0.655 | – | – | –
S. aureus DSM 20231, partner 32 µg/mL | – | 0.298 | 0.058 | 0.0249
S. aureus DSM 20231, partner 64 µg/mL | – | 0.0229 | 0.0093 | 0.0056
S. pneumoniae D39V, partner 4 µg/mL | – | 0.901 | 0.859 | 0.795
S. pneumoniae D39V, partner 8 µg/mL | – | 0.853 | 0.859 | 0.78

CN(C)[C@@H]1C(O)=C(C(N)=O)C(=O)[C@@]2(O)C(O)=C3C(=O)c4c(O)ccc(Cl)c4[C@@](C)(O)[C@H]3C[C@@H]12 [Chlortetracycline] + O=C(O[C@@H]1Cc2c(O)cc(O)cc2O[C@@H]1c1cc(O)c(O)c(O)c1)c1cc(O)c(O)c(O)c1 [EGCG]
fitness
Details | partner 6.25 µg/mL | partner 12.5 µg/mL | partner 25 µg/mL | partner 50 µg/mL
B. subtilis 168, first compound 0.0475 µg/mL | 0.911 | – | 0.303 | –
B. subtilis 168, first compound 0.095 µg/mL | 0.754 | 0.463 | – | –
B. subtilis 168, first compound 0.19 µg/mL | 0.484 | 0.214 | 0.0594 | –
S. aureus DSM 20231, first compound 0.012 µg/mL | – | 0.595 | 0.549 | –
S. aureus DSM 20231, first compound 0.024 µg/mL | – | 0.455 | 0.398 | 0.332
S. aureus DSM 20231, first compound 0.048 µg/mL | – | 0.138 | 0.108 | 0
S. pneumoniae D39V, first compound 0.012 µg/mL | – | 0.759 | 0.805 | 0.949
S. pneumoniae D39V, first compound 0.024 µg/mL | – | 0.444 | 0.454 | 0.672
S. pneumoniae D39V, first compound 0.048 µg/mL | – | 0.247 | 0.212 | –
S. pneumoniae D39V, first compound 0.375 µg/mL | – | 0.07 | 0.0693 | 0.0612
S. pneumoniae D39V, first compound 0.75 µg/mL | – | 0.0431 | 0.0527 | 0.0692
S. pneumoniae D39V, first compound 1.5 µg/mL | – | 0.0475 | 0.0473 | 0.0718

S. aureus DSM 20231, first compound 0.006 µg/mL, one replicate
Details | fitness
partner 12.5 µg/mL | 0.65
partner 25 µg/mL | 0.623
partner 50 µg/mL | 0.673

CN(C)[C@@H]1C(O)=C(C(N)=O)C(=O)[C@@]2(O)C(O)=C3C(=O)c4c(O)ccc(Cl)c4[C@@](C)(O)[C@H]3C[C@@H]12 [Chlortetracycline] + COc1c(N2C[C@@H]3CCCN[C@@H]3C2)c(F)cc2c(=O)c(C(=O)O)cn(C3CC3)c12 [Moxifloxacin]
Details | fitness
B. subtilis 168, first compound 0.0475 µg/mL, partner 0.0312 µg/mL | 0.0451
B. subtilis 168, first compound 0.0475 µg/mL, partner 0.0625 µg/mL | 0.0327
B. subtilis 168, first compound 0.0475 µg/mL, partner 0.125 µg/mL | 0.0439
B. subtilis 168, first compound 0.0475 µg/mL, partner 2 µg/mL | 0.0242
B. subtilis 168, first compound 0.0475 µg/mL, partner 4 µg/mL | 0.0248
B. subtilis 168, first compound 0.0475 µg/mL, partner 8 µg/mL | 0.0159
B. subtilis 168, first compound 0.095 µg/mL, partner 0.0312 µg/mL | 0.104
B. subtilis 168, first compound 0.095 µg/mL, partner 0.0625 µg/mL | 0.0278
B. subtilis 168, first compound 0.095 µg/mL, partner 0.125 µg/mL | 0.0296
B. subtilis 168, first compound 0.095 µg/mL, partner 2 µg/mL | 0.0289
B. subtilis 168, first compound 0.095 µg/mL, partner 4 µg/mL | 0.0255
B. subtilis 168, first compound 0.095 µg/mL, partner 8 µg/mL | 0.0155
B. subtilis 168, first compound 0.19 µg/mL, partner 0.0312 µg/mL | 0.0533
B. subtilis 168, first compound 0.19 µg/mL, partner 0.0625 µg/mL | 0.0332
B. subtilis 168, first compound 0.19 µg/mL, partner 0.125 µg/mL | 0.0433
B. subtilis 168, first compound 0.19 µg/mL, partner 2 µg/mL | 0.0261
B. subtilis 168, first compound 0.19 µg/mL, partner 4 µg/mL | 0.0247
B. subtilis 168, first compound 0.19 µg/mL, partner 8 µg/mL | 0.0129
S. aureus DSM 20231, first compound 0.012 µg/mL, partner 0.0075 µg/mL | 0.558
S. aureus DSM 20231, first compound 0.012 µg/mL, partner 0.015 µg/mL | 0.539
S. aureus DSM 20231, first compound 0.012 µg/mL, partner 0.03 µg/mL | 0.604
S. aureus DSM 20231, first compound 0.024 µg/mL, partner 0.0075 µg/mL | 0.193
S. aureus DSM 20231, first compound 0.024 µg/mL, partner 0.015 µg/mL | 0.177
S. aureus DSM 20231, first compound 0.048 µg/mL, partner 0.0075 µg/mL | 0.185
S. aureus DSM 20231, first compound 0.048 µg/mL, partner 0.015 µg/mL | 0.172
S. aureus DSM 20231, first compound 0.048 µg/mL, partner 0.03 µg/mL | 0.132
S. pneumoniae D39V, first compound 0.012 µg/mL, partner 0.005 µg/mL | 0.907
S. pneumoniae D39V, first compound 0.012 µg/mL, partner 0.01 µg/mL | 0.923
S. pneumoniae D39V, first compound 0.012 µg/mL, partner 0.02 µg/mL | 0.765
S. pneumoniae D39V, first compound 0.024 µg/mL, partner 0.005 µg/mL | 0.863
S. pneumoniae D39V, first compound 0.024 µg/mL, partner 0.01 µg/mL | 0.915
S. pneumoniae D39V, first compound 0.024 µg/mL, partner 0.02 µg/mL | 0.844
S. pneumoniae D39V, first compound 0.048 µg/mL, partner 0.005 µg/mL | 0.821
S. pneumoniae D39V, first compound 0.048 µg/mL, partner 0.01 µg/mL | 0.871
S. pneumoniae D39V, first compound 0.048 µg/mL, partner 0.02 µg/mL | 0.78
S. pneumoniae D39V, first compound 0.375 µg/mL, partner 0.0312 µg/mL | 0.0285
S. pneumoniae D39V, first compound 0.375 µg/mL, partner 0.0625 µg/mL | 0.0351
S. pneumoniae D39V, first compound 0.375 µg/mL, partner 0.125 µg/mL | 0.0309
S. pneumoniae D39V, first compound 0.75 µg/mL, partner 0.0312 µg/mL | 0.0253
S. pneumoniae D39V, first compound 0.75 µg/mL, partner 0.0625 µg/mL | 0.0219
S. pneumoniae D39V, first compound 0.75 µg/mL, partner 0.125 µg/mL | 0.0157
S. pneumoniae D39V, first compound 1.5 µg/mL, partner 0.0312 µg/mL | 0.0473
S. pneumoniae D39V, first compound 1.5 µg/mL, partner 0.0625 µg/mL | 0.0386
S. pneumoniae D39V, first compound 1.5 µg/mL, partner 0.125 µg/mL | 0.0409

S. aureus DSM 20231, one replicate
Details | fitness
first compound 0.006 µg/mL, partner 0.0075 µg/mL | 0.729
first compound 0.006 µg/mL, partner 0.015 µg/mL | 0.719
first compound 0.006 µg/mL, partner 0.03 µg/mL | 0.621
first compound 0.012 µg/mL, partner 0.06 µg/mL | 0.659
first compound 0.012 µg/mL, partner 0.12 µg/mL | 0.548
first compound 0.024 µg/mL, partner 0.06 µg/mL | 0.66
first compound 0.024 µg/mL, partner 0.12 µg/mL | 0.535
first compound 0.048 µg/mL, partner 0.06 µg/mL | 0.14
first compound 0.048 µg/mL, partner 0.12 µg/mL | 0.165

CN(C)[C@@H]1C(O)=C(C(N)=O)C(=O)[C@@]2(O)C(O)=C3C(=O)c4c(O)ccc(Cl)c4[C@@](C)(O)[C@H]3C[C@@H]12 [Chlortetracycline] + N[C@@H]1CONC1=O [Cycloserine D]
fitness
Details | first compound 0.012 µg/mL | first compound 0.024 µg/mL | first compound 0.0475 µg/mL | first compound 0.048 µg/mL | first compound 0.095 µg/mL | first compound 0.19 µg/mL
B. subtilis 168, partner 0.125 µg/mL | – | – | 0.936 | – | 0.784 | 0.515
B. subtilis 168, partner 0.25 µg/mL | – | – | 0.894 | – | 0.782 | 0.439
B. subtilis 168, partner 0.5 µg/mL | – | – | 0.899 | – | 0.764 | 0.515
S. aureus DSM 20231, partner 0.375 µg/mL | 0.667 | 0.241 | – | 0.0627 | – | –
S. aureus DSM 20231, partner 0.75 µg/mL | 0.623 | 0.249 | – | 0.0661 | – | –
S. aureus DSM 20231, partner 1.5 µg/mL | 0.68 | 0.264 | – | 0.0906 | – | –

S. aureus DSM 20231, first compound 0.006 µg/mL, one replicate
Details | fitness
partner 0.375 µg/mL | 0.804
partner 0.75 µg/mL | 0.782
partner 1.5 µg/mL | 0.804
